Drawing on patent publication US10005736B1, “Pyridine and pyrimidine derivatives” (Hoffmann-La Roche Inc., priority 2015, dated 2018), this text covers Kb and melting point for 27 compounds.

For one data set, the target named is T1, human EAAT3 (Homo sapiens, UniProt P43005).
T1 construct: expressed in transfected cells; host or cells: HEK-293
T1 sequence (P43005 1-524): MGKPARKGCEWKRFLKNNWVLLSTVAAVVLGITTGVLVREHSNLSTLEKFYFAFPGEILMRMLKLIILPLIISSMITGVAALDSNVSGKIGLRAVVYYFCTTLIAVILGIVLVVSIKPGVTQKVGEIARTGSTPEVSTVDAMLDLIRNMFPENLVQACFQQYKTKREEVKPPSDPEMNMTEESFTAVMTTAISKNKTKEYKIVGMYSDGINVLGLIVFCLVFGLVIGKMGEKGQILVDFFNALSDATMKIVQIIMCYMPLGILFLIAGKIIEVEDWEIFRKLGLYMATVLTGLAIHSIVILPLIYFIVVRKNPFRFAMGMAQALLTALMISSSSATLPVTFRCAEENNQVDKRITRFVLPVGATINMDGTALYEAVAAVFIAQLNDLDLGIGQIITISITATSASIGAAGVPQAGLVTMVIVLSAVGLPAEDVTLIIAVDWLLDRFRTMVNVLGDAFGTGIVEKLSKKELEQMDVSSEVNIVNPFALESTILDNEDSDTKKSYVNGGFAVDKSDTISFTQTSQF
Description: FLIPR Membrane Potential (FMP) assay, antagonist potency at human EAAT3. Type of data set: cell-based. Conditions: HEK-293 cells stably expressing human EAAT3; L-glutamate as agonist at EC80; antagonists applied 15 min before; Kb by Cheng-Prusoff from IC50. The procedure:
The FLIPR Membrane Potential (FMP) Assay
HEK-293 cells stably expressing human EAAT3 were seeded at 55 000 cells/well in growth medium (DMEM glutamate free (Invitrogen 11960-044), 1% Pen Strep (10 ml/1 GIBCO BRL N^o 15140-023), 10% FCS non dialysed heat inactivated, 5 mg/l puromycin) in poly-D-lysine treated 96-well black microtiter plates with clear-bottom. After 24 h, the growth medium was removed and […] of Krebs buffer (140 mM NaCl, 4.7 mM KCl, 2.5 mM CaCl2, 1.2 mM MgCl2, 11 mM HEPES, 10 mM D-glucose, pH=7.4) added. The cells were then loaded by adding 100 μl/well FMP assay dye (FLIPR Membrane Potential assay reagent, Molecular Devices). The 96-well plates were then incubated at 37° C. for 1 h. The depolarization of the cells will cause more dye to enter in the cells, where it will bind to intracellular proteins and lipids and cause an increase in the fluorescence signal. Antagonist potency at human EAAT3 was determined by using L-glutamate as agonist at a concentration which gives 80% of the maximum response. The antagonists were applied 15 min before the application of the agonist L-glutamate. The assays were performed at room temperature and measurements done by using a Fluorometric Imaging Plate Reader (FLIPR, Molecular Devices) and filter #2. Responses were measured as peak increase in fluorescence minus basal (i.e. fluorescence without addition of L-glutamate). Kb was determined using the Cheng-Prusoff equation Kb=IC50/[1+(A/EC50)], where IC50 is the concentration of the antagonist producing 50% inhibition, A is the concentration of the agonist against which the IC50 is being determined (at EC80) and EC50 is the concentration of the agonist producing 50% […].

What is called Kb is the equilibrium dissociation constant of an antagonist, usually derived from a functional assay. A low value points to higher antagonist affinity. As usually defined, the melting point is the temperature, or range, at which the solid turns liquid. Regarding `CC(C)(C)NC(=O)c1cc(-c2ccc(Cl)cc2)cc(-c2cccnc2)c1` [Example 8, N-tert-Butyl-3-(4-chlorophenyl)-5-pyridin-3-ylbenzamide], the melting point came to 177 °C. The same compound gave a Kb on human EAAT3 of 0.35 µM.

Consider `CC(C)c1ccncc1-c1cc(C(=O)NC(C)(C)C)cc(-c2ccc(Cl)cc2)c1` [Example 9, N-tert-Butyl-3-(4-chlorophenyl)-5-(4-propan-2-ylpyridin-3-yl)-benzamide], for which the melting point was determined as 148 °C. At human EAAT3, the Kb was 0.54 µM.

Regarding `CC(C)(C)NC(=O)c1cc(-c2ccc(Cl)cc2)cc(-c2cncnc2)c1` [Example 10, N-tert-Butyl-3-(4-chlorophenyl)-5-pyrimidin-5-ylbenzamide], the melting point came out at 195 °C. This compound returned a Kb on human EAAT3 of 0.27 µM.

Compound `CC(C)c1ncncc1-c1cc(C(=O)NC(C)(C)C)cc(-c2ccc(Cl)cc2)c1` [Example 11, N-tert-Butyl-3-(4-chlorophenyl)-5-(4-propan-2-ylpyrimidin-5-yl)-benzamide] returned a melting point of 182 °C. Moreover, the antagonist equilibrium constant (Kb) on human EAAT3 was determined as 0.23 µM.

On to `CC(C)c1ncncc1-c1cc(C(=O)NC(C)(C)C(F)(F)F)cc(-c2ccc(Cl)cc2)c1` [Example 18, 3-(4-Chlorophenyl)-5-(4-propan-2-ylpyrimidin-5-yl)-N-(1,1,1-trifluoro-2-methylpropan-2-yl)-benzamide], for which the melting point amounted to 170 °C. Besides, the Kb on human EAAT3 came to 0.25 µM.

For the compound `CC(C)c1ncncc1-c1cc(C(=O)NC(C)(C)C)cc(-c2ccc(F)cc2)c1` [Example 20, N-tert-Butyl-3-(4-fluorophenyl)-5-(4-propan-2-ylpyrimidin-5-yl)-benzamide], the melting point came out at 79 °C. Moreover, the antagonist dissociation constant (Kb) on human EAAT3 came out at 0.081 µM.

With `Cc1ccncc1-c1cc(C(=O)NC(C)(C)C)cc(-c2ccc(F)cc2)c1` [Example 21, N-tert-Butyl-3-(4-fluorophenyl)-5-(4-methylpyridin-3-yl)-benzamide], the melting point came to 83 °C. The compound further came in with a Kb at human EAAT3 of 0.2 µM.

In the case of `CC(C)c1ncncc1-c1cc(C(=O)NC(C)(C)C2CC2)cc(-c2ccc(F)cc2)c1` [Example 22, N-(2-Cyclopropylpropan-2-yl)-3-(4-fluorophenyl)-5-(4-propan-2-ylpyrimidin-5-yl)-benzamide], the melting point turned out to be 74 °C. Besides, the Kb on human EAAT3 amounted to 0.057 µM.

Consider `Cc1ccncc1-c1cc(C(=O)NC(C)(C)C2CC2)cc(-c2ccc(F)cc2)c1` [Example 23, N-(2-Cyclopropylpropan-2-yl)-3-(4-fluorophenyl)-5-(4-methylpyridin-3-yl)-benzamide], for which the melting point is 76 °C. On human EAAT3, this compound had a Kb of 0.078 µM.

In turn, `Cc1ncccc1-c1cc(C(=O)NC(C)(C)C)cc(-c2ccc(F)cc2)c1` [Example 24, N-tert-Butyl-3-(4-fluorophenyl)-5-(2-methylpyridin-3-yl)-benzamide] displayed a melting point of 78 °C. Also, at human EAAT3, the antagonist equilibrium constant (Kb) was found to be 0.17 µM.

On to `Cc1ccc(-c2cc(C(=O)NC(C)(C)C)cc(-c3cncnc3C(C)C)c2)cc1` [Example 25, N-tert-Butyl-3-(4-methylphenyl)-5-(4-propan-2-ylpyrimidin-5-yl)-benzamide], for which the melting point stood at 91 °C. The compound also had an antagonist dissociation constant (Kb) on human EAAT3 of 0.25 µM.

In the case of `CC(C)c1ncncc1-c1cc(C(=O)NC(C)(C)C)cc(-c2ccc(F)c(F)c2)c1` [Example 26, N-tert-Butyl-3-(3,4-difluorophenyl)-5-(4-propan-2-ylpyrimidin-5-yl)-benzamide], the melting point stood at 80 °C. In addition, the antagonist equilibrium constant (Kb) on human EAAT3 was 0.1 µM.

In turn, `CC(C)c1ncncc1-c1cc(C(=O)NC(C)(C)C)cc(-c2ccc(C3CC3)cc2)c1` [Example 27, N-tert-Butyl-3-(4-cyclopropylphenyl)-5-(4-propan-2-ylpyrimidin-5-yl)-benzamide] gave a melting point of 91.5 °C. At human EAAT3, this compound showed a Kb of 0.18 µM.

As for `CC(C)c1ncncc1-c1cc(C(=O)NC(C)(C)C)cc(-c2ccc(C(F)(F)F)cc2)c1` [Example 28, N-tert-Butyl-3-(4-propan-2-ylpyrimidin-5-yl)-5-[4-(trifluoromethyl)-phenyl]-benzamide], the melting point came out at 168 °C. This compound also showed an antagonist equilibrium constant (Kb) at human EAAT3 of 0.31 µM.

As to `Cc1cc(-c2cc(C(=O)NC(C)(C)C)cc(-c3cncnc3C(C)C)c2)ccc1F` [Example 29, N-tert-Butyl-3-(4-fluoro-3-methylphenyl)-5-(4-propan-2-ylpyrimidin-5-yl)-benzamide], the melting point is 83 °C. Besides, at human EAAT3, the antagonist dissociation constant (Kb) amounted to 0.72 µM.

Turning to `Cc1ccc(-c2cc(C(=O)NC(C)(C)C)cc(-c3cncnc3C(C)C)c2)cc1F` [Example 30, N-tert-Butyl-3-(3-fluoro-4-methylphenyl)-5-(4-propan-2-ylpyrimidin-5-yl)-benzamide], the melting point stood at 90 °C. Also, the Kb on human EAAT3 amounted to 0.77 µM.

Compound `CC(C)c1ncncc1-c1cc(C(=O)NC(C)(C)C)cc(-c2ccc(Cl)c(F)c2)c1` [Example 31, N-tert-Butyl-3-(4-chloro-3-fluorophenyl)-5-(4-propan-2-ylpyrimidin-5-yl)-benzamide] registered a melting point of 93 °C. The compound also came in with an antagonist dissociation constant (Kb) at human EAAT3 of 0.32 µM.

Take `CC(C)c1ncncc1-c1cc(C(=O)NC(C)(C)C)cc(-c2ccc(C#N)cc2)c1` [Example 32, N-tert-Butyl-3-(4-cyanophenyl)-5-(4-propan-2-ylpyrimidin-5-yl)-benzamide]: the melting point stood at 98 °C. This compound also came in with a Kb on human EAAT3 of 0.57 µM.

`COc1ccc(-c2cc(C(=O)NC(C)(C)C)cc(-c3cncnc3C(C)C)c2)cc1` [Example 33, N-tert-Butyl-3-(4-methoxyphenyl)-5-(4-propan-2-ylpyrimidin-5-yl)-benzamide] showed a melting point of 84 °C. At human EAAT3, this compound had an antagonist dissociation constant (Kb) of 0.54 µM.

For `CC(C)(C)NC(=O)c1cc(-c2ccc(Cl)cc2)cc(-c2cncnc2C(C)(C)C)c1` [Example 42, N-tert-Butyl-3-(4-tert-butyl-pyrimidin-5-yl)-5-(4-chlorophenyl)-benzamide], the melting point turned out to be 108 °C.

For the compound `CC(C)c1ncncc1-c1cc(C(=O)NC(C)(C)CO)cc(-c2ccc(Cl)cc2)c1` [Example 43, 3-(4-Chlorophenyl)-N-(1-hydroxy-2-methylpropan-2-yl)-5-(4-propan-2-yl-pyrimidin-5-yl)-benzamide], the melting point came to 86 °C.

For the compound `CC(C)c1ncncc1-c1cc(C(=O)NC(C)(C)CO)cc(-c2ccc(F)cc2)c1` [Example 44, 3-(4-Fluorophenyl)-N-(1-hydroxy-2-methylpropan-2-yl)-5-(4-propan-2-yl-pyrimidin-5-yl)-benzamide], the melting point is 63 °C.

Compound `CC(C)c1ncncc1-c1cc(C(=O)NC(C)(C)CO)cc(-c2ccc(C(F)(F)F)cc2)c1` [Example 45, N-(1-Hydroxy-2-methylpropan-2-yl)-3-(4-propan-2-yl-pyrimidin-5-yl)-5-[4-(trifluoromethyl)-phenyl]-benzamide] had a melting point of 80 °C.

Regarding `CC(C)(C)NC(=O)c1cc(-c2ccc(F)c(F)c2)cc(-c2cncnc2C(C)(C)C)c1` [Example 48, N-tert-Butyl-3-(4-tert-butyl-primidin-5-yl)-5-(3,4-difluorophenyl)-benzamide], the melting point was found to be 99 °C.

The compound `CC(C)(C)NC(=O)c1cc(-c2ccc(C(F)(F)F)cc2)cc(-c2cncnc2C(C)(C)C)c1` [Example 49, N-tert-Butyl-3-(4-tert-butyl-pyrimidin-5-yl)-5-[4-(trifluoromethyl)-phenyl]-benzamide] displayed a melting point of 91 °C.

The compound `CC(C)(C)NC(=O)c1cc(-c2ccc(F)cc2)cc(-c2cncnc2C(C)(C)C)c1` [Example 51, N-tert-Butyl-3-(4-tert-butyl-pyrimidin-5-yl)-5-(4-fluorophenyl)-benziimide] had a melting point of 102 °C.

The compound `CC(C)(C)NC(=O)c1cc(-c2ccc(Cl)cc2)cc(-c2cnccc2C(C)(C)C)c1` [Example 53, N-tert-Butyl-3-(4-tert-butylpyridin-3-yl)-5-(4-chlorophenyl)-benzamide] gave a melting point of 63.5 °C.
